Experimental data reported in PubChem BioAssay (NCI).
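Method: 48-hour compound exposure of cells in 96-well plates, five concentrations, linear interpolation of endpoints. GI50: concentration for 50% inhibition of growth. TGI: concentration producing complete growth inhibition.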

Columns and labels:
Assay in all cases: NCI-60 cell line screen, 48 h; in the data active means GI50 below about 0.43 µM; inactive means the rest
786-0 renal = tested on: 786-0 renal
A498 renal = tested on: A498 renal
A549 NSCLC = tested on: A549 NSCLC
ACHN renal = tested on: ACHN renal
CAKI-1 renal = tested on: CAKI-1 renal
CCRF-CEM leukemia = tested on: CCRF-CEM leukemia
DLD-1 colon = tested on: DLD-1 colon
DMS 114 small cell lung = tested on: DMS 114 small cell lung
DMS 273 small cell lung = tested on: DMS 273 small cell lung
HCT-116 colon = tested on: HCT-116 colon
HCT-15 colon = tested on: HCT-15 colon
HOP-18 NSCLC = tested on: HOP-18 NSCLC
HOP-62 NSCLC = tested on: HOP-62 NSCLC
HOP-92 NSCLC = tested on: HOP-92 NSCLC
HT29 colon = tested on: HT29 colon
IGROV1 ovarian = tested on: IGROV1 ovarian
K-562 leukemia = tested on: K-562 leukemia
KM12 colon = tested on: KM12 colon
LOX IMVI melanoma = tested on: LOX IMVI melanoma
LXFL 529 NSCLC = tested on: LXFL 529 NSCLC
M14 melanoma = tested on: M14 melanoma
M19-MEL melanoma = tested on: M19-MEL melanoma
MALME-3M melanoma = tested on: MALME-3M melanoma
MOLT-4 leukemia = tested on: MOLT-4 leukemia
NCI-H226 lung = tested on: NCI-H226 lung
NCI-H23 lung = tested on: NCI-H23 lung
NCI-H460 lung = tested on: NCI-H460 lung
NCI-H522 lung = tested on: NCI-H522 lung
OVCAR-3 ovarian = tested on: OVCAR-3 ovarian
OVCAR-4 ovarian = tested on: OVCAR-4 ovarian
OVCAR-8 ovarian = tested on: OVCAR-8 ovarian
RPMI-8226 leukemia = tested on: RPMI-8226 leukemia
RXF 393 renal = tested on: RXF 393 renal
SF-268 CNS = tested on: SF-268 CNS
SF-295 CNS = tested on: SF-295 CNS
SF-539 CNS = tested on: SF-539 CNS
SK-MEL-2 melanoma = tested on: SK-MEL-2 melanoma
SK-MEL-28 melanoma = tested on: SK-MEL-28 melanoma
SK-MEL-5 melanoma = tested on: SK-MEL-5 melanoma
SK-OV-3 ovarian = tested on: SK-OV-3 ovarian
SN12C renal = tested on: SN12C renal
SNB-19 CNS = tested on: SNB-19 CNS
SNB-75 CNS = tested on: SNB-75 CNS
SNB-78 CNS = tested on: SNB-78 CNS
SW-620 colon = tested on: SW-620 colon
TK-10 renal = tested on: TK-10 renal
U251 CNS = tested on: U251 CNS
UACC-257 melanoma = tested on: UACC-257 melanoma
UACC-62 melanoma = tested on: UACC-62 melanoma
UO-31 renal = tested on: UO-31 renal
XF 498 CNS = tested on: XF 498 CNS
COLO 205 colon = tested on: COLO 205 colon
EKVX NSCLC = tested on: EKVX NSCLC
HCC-2998 colon = tested on: HCC-2998 colon
HL-60(TB) leukemia = tested on: HL-60(TB) leukemia
KM20L2 colon = tested on: KM20L2 colon
OVCAR-5 ovarian = tested on: OVCAR-5 ovarian

COc1cc2c(cc1OC)[Se]c1cc(OC)c(OC)cc1[Se]2
> 100 µM: TGI (786-0 renal) | TGI (A498 renal) | TGI (A549 NSCLC) | TGI (ACHN renal) | TGI (CAKI-1 renal) | TGI (CCRF-CEM leukemia) | TGI (DLD-1 colon) | TGI (DMS 114 small cell lung) | TGI (DMS 273 small cell lung) | TGI (HCT-116 colon) | TGI (HCT-15 colon) | TGI (HOP-18 NSCLC) | TGI (HOP-62 NSCLC) | TGI (HOP-92 NSCLC) | TGI (HT29 colon) | TGI (IGROV1 ovarian) | TGI (K-562 leukemia) | TGI (KM12 colon) | TGI (LOX IMVI melanoma) | TGI (LXFL 529 NSCLC) | TGI (M14 melanoma) | TGI (M19-MEL melanoma) | TGI (MALME-3M melanoma) | TGI (MOLT-4 leukemia) | TGI (NCI-H226 lung) | TGI (NCI-H23 lung) | TGI (NCI-H460 lung) | TGI (NCI-H522 lung) | TGI (OVCAR-3 ovarian) | TGI (OVCAR-4 ovarian) | TGI (OVCAR-8 ovarian) | TGI (RPMI-8226 leukemia) | TGI (RXF 393 renal) | TGI (SF-268 CNS) | TGI (SF-295 CNS) | TGI (SF-539 CNS) | TGI (SK-MEL-2 melanoma) | TGI (SK-MEL-28 melanoma) | TGI (SK-MEL-5 melanoma) | TGI (SK-OV-3 ovarian) | TGI (SN12C renal) | TGI (SNB-19 CNS) | TGI (SNB-75 CNS) | TGI (SNB-78 CNS) | TGI (SW-620 colon) | TGI (TK-10 renal) | TGI (U251 CNS) | TGI (UACC-257 melanoma) | TGI (UACC-62 melanoma) | TGI (UO-31 renal) | TGI (XF 498 CNS)
inactive: GI50 (786-0 renal) > 100 µM | GI50 (A498 renal) > 100 µM | GI50 (A549 NSCLC) > 100 µM | GI50 (ACHN renal) > 100 µM | GI50 (CAKI-1 renal) > 100 µM | GI50 (CCRF-CEM leukemia) > 100 µM | GI50 (DLD-1 colon) > 100 µM | GI50 (DMS 114 small cell lung) 4.77 µM | GI50 (HCT-116 colon) > 100 µM | GI50 (HOP-62 NSCLC) > 100 µM | GI50 (HT29 colon) 4.32 µM | GI50 (IGROV1 ovarian) > 100 µM | GI50 (K-562 leukemia) 5.08 µM | GI50 (KM12 colon) 3.54 µM | GI50 (LXFL 529 NSCLC) > 100 µM | GI50 (M14 melanoma) > 100 µM | GI50 (M19-MEL melanoma) > 100 µM | GI50 (MALME-3M melanoma) > 100 µM | GI50 (NCI-H226 lung) > 100 µM | GI50 (NCI-H23 lung) > 100 µM | GI50 (NCI-H460 lung) > 100 µM | GI50 (NCI-H522 lung) > 100 µM | GI50 (OVCAR-3 ovarian) > 100 µM | GI50 (OVCAR-4 ovarian) > 100 µM | GI50 (OVCAR-8 ovarian) > 100 µM | GI50 (RPMI-8226 leukemia) > 100 µM | GI50 (SF-268 CNS) > 100 µM | GI50 (SK-MEL-2 melanoma) > 100 µM | GI50 (SK-MEL-28 melanoma) > 100 µM | GI50 (SK-MEL-5 melanoma) > 100 µM | GI50 (SK-OV-3 ovarian) > 100 µM | GI50 (SN12C renal) > 100 µM | GI50 (SNB-19 CNS) > 100 µM | GI50 (SNB-78 CNS) > 100 µM | GI50 (SW-620 colon) > 100 µM | GI50 (TK-10 renal) > 100 µM | GI50 (U251 CNS) > 100 µM | GI50 (UACC-257 melanoma) > 100 µM | GI50 (UACC-62 melanoma) > 100 µM | GI50 (UO-31 renal) > 100 µM | GI50 (XF 498 CNS) > 100 µM

Cn1nc(N)nc1N=S(C)(C)=N
> 100 µM: TGI (786-0 renal) | TGI (A498 renal) | TGI (A549 NSCLC) | TGI (ACHN renal) | TGI (CAKI-1 renal) | TGI (CCRF-CEM leukemia) | TGI (COLO 205 colon) | TGI (DMS 114 small cell lung) | TGI (DMS 273 small cell lung) | TGI (EKVX NSCLC) | TGI (HCC-2998 colon) | TGI (HCT-15 colon) | TGI (HL-60(TB) leukemia) | TGI (HOP-18 NSCLC) | TGI (HOP-62 NSCLC) | TGI (HOP-92 NSCLC) | TGI (HT29 colon) | TGI (IGROV1 ovarian) | TGI (K-562 leukemia) | TGI (KM12 colon) | TGI (KM20L2 colon) | TGI (LXFL 529 NSCLC) | TGI (M14 melanoma) | TGI (MALME-3M melanoma) | TGI (MOLT-4 leukemia) | TGI (NCI-H226 lung) | TGI (NCI-H23 lung) | TGI (NCI-H460 lung) | TGI (NCI-H522 lung) | TGI (OVCAR-3 ovarian) | TGI (OVCAR-4 ovarian) | TGI (OVCAR-5 ovarian) | TGI (OVCAR-8 ovarian) | TGI (RPMI-8226 leukemia) | TGI (RXF 393 renal) | TGI (SF-268 CNS) | TGI (SF-295 CNS) | TGI (SF-539 CNS) | TGI (SK-MEL-2 melanoma) | TGI (SK-MEL-28 melanoma) | TGI (SK-MEL-5 melanoma) | TGI (SK-OV-3 ovarian) | TGI (SN12C renal) | TGI (SNB-19 CNS) | TGI (SNB-75 CNS) | TGI (SNB-78 CNS) | TGI (SW-620 colon) | TGI (TK-10 renal) | TGI (U251 CNS) | TGI (UACC-257 melanoma) | TGI (UACC-62 melanoma) | TGI (UO-31 renal) | TGI (XF 498 CNS)
